Earlier results as cited in US20080292666A1, “Preparation for Preventing or Treating Calcium Deficiency Conditions In Mammals” (priority 2005, published 2008).

How the values were obtained:
[1] = for effect of oral drenches on blood Ca-concentrations: aqueous solutions or slurries, cows
[2] = 75 g of calcium as paste, oral
[3] = test system: parturient paresis in dairy cows; conditions: 120 g calcium as calcium propionate cylinders vs 216 g as oily calcium chloride solution

Row | SMILES | rise of plasma Ca-concentrations after oral CaCl2 compared with i.v. ([1]; 50 g of Ca as CaCl2) | effect of oral drenches on blood Ca-concentrations [1] | total amount administered in 24 h not to be exceeded to avoid severe metabolic acidosis ([1]; oral, 24 h (120 g of Ca)) | persistence of the increase in plasma calcium [2] | rapidity of plasma calcium increase [2] | effectiveness in the prevention of milk fever [3]
1 | [Ca+2].[Cl-].[Cl-] [calcium chloride] | raised plasma Ca-concentrations to the same extent as 4° g. of Ca as CaCl2 given i.v. | increased blood Ca-concentrations more quickly than did Ca-propionate | ≤ 288 g | – | – | –
2 | CCC(=O)[O-].CCC(=O)[O-].[Ca+2] [calcium propionate] | – | effects lasted longer | – | sustained for a longer period | did not increase plasma calcium as rapidly as 75° g. calcium as CaCl2 | as effective in the prevention of milk fever as was treatment with calcium chloride
